Assay results taken from patent US12691119B2, “Methods for treating covid-19 with sepiapterin” (PTC Therapeutics MP, Inc., priority 2021, dated 2026).

What was measured:
[1] = test system: cytokine expression in the lungs; test: Intranasal LPS model of ARDS, cytokine expression in BAL fluid by ELISA; format: in vivo; details: mice, 10 mg/kg per day oral gavage for 3 days, then 40 ug LPS intranasally; BAL 16-18 hours later; FIG. 1
Protocol: FIG. 1 is a graph showing cytokine expression in the lungs of mice treated with intranasal lipopolysaccharide (LPS) with or without 10 mg/kg sepiapterin (SP) treatment.
This is in line with the therapeutic effect of SP in a Dextran Sulfate Sodium//Azoxymethane model of colitis/colon cancer.
Mice were treated with either 10 mg/kg sepiapterin (SP) per day delivered via oral gavage or nothing for 3 days. Mice were then treated with 40 ug lipopolysaccharide (LPS) inhaled intranasally. 16-18 hours later, bronchoalveolar lavage (BAL) fluid was collected and assess for cytokine expression via ELISA. Untreated (UT) (n=1), LSP (n=3), LSP+SP (n=2). (FIG. 1).

[2] = healthy volunteers and subjects with Phenylketonuria, Primary BH4 Deficiencies, or diabetic gastroparesis; cited from earlier work
OT-I cells = test: OT-I splenocyte transfer with ova peptide-pulsed BMDCs; proliferation and IFN-γ by flow cytometry; format: in vivo, C57/B16 mice; details: mice
Protocol: FIG. 3A is a graph showing the proliferation and activation of CD8^+ T cells in the presence of sepiapterin in vivo.
FIG. 3B is a graph showing cytokine (IFN-γ) expression in cells in the presence of sepiapterin in vivo.
2×10^6 OT-I splenocytes were injected into C57/B16 mice via tail vein injection. 24 hours later, 1×10^6 ova peptide-pulsed bone marrow derived dendritic cells were injected into these mice subcutaneously. Starting on day 3, mice were given 10 mg/kg SP orally for 3 consecutive days. On day 6, mice were sacrificed and spleens were harvested and stimulated for 6 hours with brefeldin A (BFA), phorbol myristate acetate (PMA), and ionomycin. OT-I proliferation (FIG. 3A) and IFN-γ expression (FIG. 3B) were assessed via flow cytometry.

[3] = test system: CD8+ T cells (pmel splenocytes); test: CFSE-labeled pmel splenocytes co-cultured with gp100-pulsed BMDCs; CFSE dilution by flow cytometry, cytokines by ELISA; format: cell-based; details: in vitro
Excerpt: FIG. 2A is a graph showing the proliferation and activation of CD8^+ T cells in the presence of sepiapterin in vitro.
FIG. 2B is a graph showing cytokine (interferon gamma, IFN-γ) expression in cells in the presence of sepiapterin in vitro.
FIG. 2C is a graph showing cytokine (interleukin 2, IL-2) expression in cells in the presence of sepiapterin in vitro.
1×10^5 pmel splenocytes were labeled with carboxyfluorescein succinimidyl ester (CFSE) and then co-cultured, at either a 1:10 or 1:40 ratio (splenocytes:BMDC), with gp100-pulsed bone marrow derived dendritic cells (BMDCs) for 3 days. Sepiapterin (SP) was added after BMDCs were added to splenocytes. After incubation, CFSE dilution was measured via flow cytometry (FIG. 2A) and cytokine expression was measured via ELISA (FIGS. 2B and 2C). No DC=no dendritic cells, UT=untreated. […] The enhanced secretion of IFN-γ in FIG. 2B is a result of the higher number of T cells present in wells treated with SP.

[4] = Stability on exposure to air; format: physicochemical; details: exposed to air
Excerpt: Accordingly, pharmaceutical compositions of the invention may include antioxidants. The antioxidant may minimize the oxidative degradation of sepiapterin. […]

[5] = test system: innate immune cell mediated inflammation in the colon; details: caused by DSS in the colon, preclinical models; cited from earlier work

C[C@H](O)C(=O)C1=Nc2c(nc(N)[nH]c2=O)NC1 [sepiapterin, (S)-2-amino-6-(2-hydroxypropanoyl)-7,8-dihydropteridin-4(3H)-one]
cytokine expression in bronchoalveolar lavage (BAL) fluid [1]: lower levels of cytokine expression
tolerability [2]: well tolerated
OT-I proliferation (OT-I cells; 10 mg/kg orally for 3 consecutive days from day 3, spleens day 6, FIG. 3A): enhanced proliferation of OT-I cells
T cell activation and IFN-γ secretion (OT-I cells; 10 mg/kg orally for 3 consecutive days, spleens stimulated 6 hours with BFA, PMA, ionomycin, FIG. 3B): minimal effect on T cell activation and IFN-γ secretion
proliferation of CD8+ T cells (CFSE dilution) ([3]; 3 days co-culture, 1:10 or 1:40 splenocytes:BMDC, FIG. 2A): enhanced proliferation of anti-viral CD8^+ T cells in a dose dependent manner
T cell activation and IFN-γ secretion ([3]; ELISA, FIGS. 2B and 2C): without directly affecting T cell activation and IFN-γ secretion
oxidation stability [4]: prone to rapid oxidation when exposed to air
innate immune cell mediated inflammation [5]: profoundly suppress innate immune cell mediated inflammation
